Publication PMC8770581 (ChemMedChem, 2021)

Assays:
[1] = Absorption/emission maxima and fluorescence quantum yield of free ligand in PBS; assay type: physicochemical; settings: free ligand in PBS
[2] = molecular target: α-syn fibrils (Homo sapiens, UniProt P37840); test: α-Synuclein fibril/ligand saturation binding assay
[3] = Kd α-syn (reported as no binding), α-syn fibrils, saturation binding
[4] = Kd α-syn, Table 1, synthetic α-syn fibrils 2.5 μM, 1 hour, mean ± SD (n = 3)

Molecule	Absmax [1]	Emmax [1]	Kd [2, 3]	Kd [2, 4]
3-(3-(4-(Dimethylamino)phenyl)allylidene)chromane-2,4-dione [compound 27]	442	661	–	–
O=C1/C(=C/C=C/c2ccc(Br)cc2)Cc2ccccc21 [compound 7, (E)-2-((E)-3-(4-Bromophenyl)allylidene)-2,3-dihydro-1H-inden-1-one]	332	430	≥ 2000 nM	> 2000 nM
O=C1/C(=C/C=C/c2ccc([N+](=O)[O-])cc2)Cc2ccccc21 [compound 10, (E)-2-((E)-3-(4-Nitrophenyl)allylidene)-2,3-dihydro-1H-inden-1-one]	336	438	–	–
O=C1/C(=C/C=C/c2ccc(Br)cc2)Cc2ccc(O)cc21 [compound 11, (E)-2-((E)-3-(4-Bromophenyl)allylidene)-6-hydroxy-2,3-dihydro-1H-inden-1-one]	335	429	≥ 2000 nM	> 2000 nM
CN(C)c1ccc(/C=C/C=C2\Cc3ccc(O)cc3C2=O)cc1 [compound 12, (E)-2-((E)-3-(4-(Dimethylamino)phenyl)allylidene)-6-hydroxy-2,3-dihydro-1H-inden-1-one]	406	614	–	203 ± 15.9 nM
O=C1/C(=C/C=C/c2ccc([N+](=O)[O-])cc2)Cc2ccc(O)cc21 [compound 13, (E)-6-Hydroxy-2-((E)-3-(4-nitrophenyl)allylidene)-2,3-dihydro-1H-inden-1-one]	356	443	–	726 ± 23.6 nM
COc1cc(/C=C/C=C2\Cc3cc(F)cc(F)c3C2=O)ccc1O [compound 14, (E)-5,7-Difluoro-2-((E)-3-(4-hydroxy-3-methoxyphenyl)allylidene)-2,3-dihydro-1H-inden-1-one]	338	545	–	241 ± 47.9 nM
O=C1/C(=C/C=C/c2ccc([N+](=O)[O-])cc2)Cc2cc(F)cc(F)c21 [compound 15, (E)-5,7-Difluoro-2-((E)-3-(4-nitrophenyl)allylidene)-2,3-dihydro-1H-inden-1-one]	330	439	–	398.1 ± 3.9 nM
O=C1C(=C/C=C/c2ccccc2)C(=O)c2ccccc21 [compound 16, (E)-2-(3-Phenylallylidene)-1H-indene-1,3(2H)-dione]	331	421	–	> 2000 nM
O=C1C(=C/C=C/c2ccc(Br)cc2)C(=O)c2ccccc21 [compound 17, (E)-2-(3-(4-Bromophenyl)allylidene)-1H-indene-1,3(2H)-dione]	328	419	–	> 2000 nM
O=C1C(=C/C=C/c2ccc(F)cc2)C(=O)c2ccccc21 [compound 18, (E)-2-(3-(4-Fluorophenyl)allylidene)-1H-indene-1,3(2H)-dione]	332	421	–	> 2000 nM
CN(C)c1ccc(/C=C/C=C2C(=O)c3ccccc3C2=O)cc1 [compound 19, (E)-2-(3-(4-(Dimethylamino)phenyl)allylidene)-1H-indene-1,3(2H)-dione]	416	–	–	–
COc1cc(/C=C/C=C2C(=O)c3ccccc3C2=O)cc(OC)c1O [compound 21, (E)-2-(3-(4-Hydroxy-3,5-dimethoxyphenyl)allylidene)-1H-indene-1,3(2H)-dione]	434	450	–	268 ± 11.7 nM
O=C1C(=C/C=C/c2ccc([N+](=O)[O-])cc2)C(=O)c2ccccc21 [compound 22, (E)-2-(3-(4-Nitrophenyl)allylidene)-1H-indene-1,3(2H)-dione]	336	460	–	1330 ± 182 nM
COc1cc(C=CC=C2C(=O)Oc3ccccc3C2=O)ccc1O [compound 25, 3-(3-(4-Hydroxy-3-methoxyphenyl)allylidene)chromane-2,4-dione]	490	621	–	116.3 ± 0.7 nM
CN(C)c1ccc(C=CC=C2C(=O)Oc3ccccc3C2=O)cc1 [compound 26, 3-(3-(4-(Dimethylamino)phenyl)allylidene)chromane-2,4-dione]	440	657	–	119 ± 21.1 nM
CN(C)c1ccc(C=CC=C2C(=O)Oc3ccc(Br)cc3C2=O)cc1 [compound 28, 6-Bromo-3-(3-(4-(dimethylamino)phenyl)allylidene)chromane-2,4-dione]	405	–	≥ 2000 nM	> 2000 nM
CN(C)c1ccc(-c2ccc(/C=C/C=C3\Cc4ccc(O)cc4C3=O)cc2)cc1 [compound 30, (E)-2-((E)-3-(4'-(Dimethylamino)-[1,1'-biphenyl]-4-yl)allylidene)-6-hydroxy-2,3-dihydro-1H-inden-1-one]	414	597	–	–

Molecule	Absmax [1]	Emmax [1]	Kd [2, 3]	Kd [2, 4]
O=C1/C(=C/C=C/c2ccc(-c3ccc(CO)cc3)cc2)Cc2ccc(O)cc21 [compound 31, (E)-6-Hydroxy-2-((E)-3-(4'-(hydroxymethyl)-[1,1'-biphenyl]-4-yl)allylidene)-2,3-dihydro-1H-inden-1-one]	368	540	–	126 ± 5 nM
N#Cc1ccc(-c2ccc(/C=C/C=C3\Cc4ccc(O)cc4C3=O)cc2)s1 [compound 33, 5-(4-((E)-3-((E)-6-Hydroxy-1-oxo-1,3-dihydro-2H-inden-2-ylidene)prop-1-en-1-yl)phenyl)thiophene-2-carbonitrile]	398	565	–	–
O=C(O)c1ccc(-c2ccc(/C=C/C=C3C(=O)c4ccccc4C3=O)cc2)cc1 [compound 34, (E)-4'-(3-(1,3-Dioxo-1,3-dihydro-2H-inden-2-ylidene)prop-1-en-1-yl)-[1,1'-biphenyl]-4-carboxylic acid]	358	409	–	1430 ± 46.8 nM
Nc1cccc(-c2ccc(/C=C3/Cc4ccccc4C3=O)s2)c1 [compound 38, (Z)-2-((5-(3-Aminophenyl)thiophen-2-yl)methylene)-2,3-dihydro-1H-inden-1-one]	408	563	–	160 ± 10 nM
CN(C)c1ccc(-c2ccc(/C=C3/Cc4ccccc4C3=O)s2)cc1 [compound 40, (Z)-2-((5-(4-(Dimethylamino)phenyl)thiophen-2-yl)methylene)-2,3-dihydro-1H-inden-1-one]	413	597	–	160 ± 7.1 nM
CN(C)c1ncc(-c2ccc(/C=C3/Cc4ccccc4C3=O)s2)cn1 [compound 41, (Z)-2-((5-(2-(Dimethylamino)pyrimidin-5-yl)thiophen-2-yl)methylene)-2,3-dihydro-1H-inden-1-one]	410	567	–	272 ± 29.9 nM
CN(C)c1ncc(-c2ccc(/C=C3/Cc4ccc(O)cc4C3=O)s2)cn1 [compound 43, (Z)-2-((5-(2-(Dimethylamino)pyrimidin-5-yl)thiophen-2-yl)methylene)-6-hydroxy-2,3-dihydro-1H-inden-1-one]	386	572	–	236 ± 10.4 nM
O=C1/C(=C\c2ccc(-c3ccc(CO)cc3)s2)Cc2ccc(O)cc21 [compound 44, (Z)-6-Hydroxy-2-((5-(4-(hydroxymethyl)phenyl)thiophen-2-yl)methylene)-2,3-dihydro-1H-inden-1-one]	412	545	–	134 ± 19.2 nM
O=C1/C(=C\c2cc(-c3ccc(CO)cc3)cs2)Cc2ccccc21 [compound 46, (Z)-2-((4-(4-(Hydroxymethyl)phenyl)thiophen-2-yl)methylene)-2,3-dihydro-1H-inden-1-one]	368	454	–	153 ± 7.9 nM
O=C1/C(=C\c2cc(-c3cccnc3)cs2)Cc2ccccc21 [compound 47, (Z)-2-((4-(Pyridin-3-yl)thiophen-2-yl)methylene)-2,3-dihydro-1H-inden-1-one]	340	404	–	333 ± 28.3 nM
O=C1/C(=C\c2ccc(-c3ccc(CO)cc3)s2)CCc2ccccc21 [compound 49, (Z)-2-((5-(4-(Hydroxymethyl)phenyl)thiophen-2-yl)methylene)-3,4-dihydronaphthalen-1(2H)-one]	372	551	–	162 ± 13.6 nM
COc1cc(-c2ccc(/C=C3/CCc4ccccc4C3=O)s2)ccc1O [compound 50, (Z)-2-((5-(4-Hydroxy-3-methoxyphenyl)thiophen-2-yl)methylene)-3,4-dihydronaphthalen-1(2H)-one]	417	596	–	111 ± 7.8 nM
CN(C)c1ncc(-c2ccc(/C=C3/CCc4ccccc4C3=O)s2)cn1 [compound 51, (Z)-2-((5-(2-(Dimethylamino)pyrimidin-5-yl)thiophen-2-yl)methylene)-3,4-dihydronaphthalen-1(2H)-one]	442	613	–	107 ± 7.5 nM
O=C1C(=CC2=C(Cl)c3ccccc3CC2)C(=O)c2ccccc21 [compound 52, 2-((1-Chloro-3,4-dihydronaphthalen-2-yl)methylene)-1H-indene-1,3(2H)-dione]	354	406	–	> 2000 nM
Cc1ccc2occ(C=C3C(=O)c4ccccc4C3=O)c(=O)c2c1 [compound 53, 2-((6-Methyl-4-oxo-4H-chromen-3-yl)methylene)-1H-indene-1,3(2H)-dione]	428	471	–	> 2000 nM
O=C1C(=Cc2coc3ccc(Br)cc3c2=O)C(=O)c2ccccc21 [compound 54, 2-((6-Bromo-4-oxo-4H-chromen-3-yl)methylene)-1H-indene-1,3(2H)-dione]	336	406	–	> 2000 nM
O=C1C(=Cc2cc3ccccc3[nH]2)C(=O)c2ccccc21 [compound 55, 2-((1H-Indol-2-yl)methylene)-1H-indene-1,3(2H)-dione]	384	519	–	1180 ± 88 nM
